Assay results: patent publication EP2102204B1, “NEW AMINOPYRROLO[1,2- A]INDOLE ET AMINOPYRIDAZINO[1,6-A]INDOLE DERIVATIVES, METHOD FOR PREPARING THE SAME AND PHARMACEUTICAL COMPOSITIONS CONTAINING THE SAME” (Les Laboratoires Servier, priority 2007, dated 2008)

Test system: protéine tyrosine hydroxylase (TH)
Assay: Induction of tyrosine hydroxylase in the locus coeruleus of mice (immunodetection and image analysis of brain sections)
Format: in vivo, souris Balb/C
Conditions: i.p. 20 mg/kg, single injection, 3 days after, % par rapport à la valeur moyenne du groupe témoin; for quantité de TH au niveau du LC, coupe 1: coupe 1 du LC (sens antérieur vers postérieur); for quantité de TH au niveau du LC, coupe 2: coupe 2 du LC (sens antérieur vers postérieur); for quantité de TH au niveau du LC, coupe 3: coupe 3 du LC (sens antérieur vers postérieur); for quantité de TH au niveau du LC, coupe 4: coupe 4 du LC (sens antérieur vers postérieur); for quantité de TH au niveau du LC, coupe 5: coupe 5 du LC (sens antérieur vers postérieur); for quantité de TH au niveau du LC, coupe 6: coupe 6 du LC (sens antérieur vers postérieur); for quantité de TH au niveau du LC, coupe 7: coupe 7 du LC (sens antérieur vers postérieur); for quantité de TH au niveau du LC, coupe 8: coupe 8 du LC (sens antérieur vers postérieur)
Source text: Il est recherché, parmi les dérivés, ceux qui sont capables d'induire une augmentation de la protéine tyrosine hydroxylase (TH) dans le cerveau de la souris Balb/C, au niveau du locus coeruleus (LC).
Les animaux utilisés sont des souris mâles de la lignée pure Balb/C (Charles River Laboratories), âgées de 7 à 8 semaines au moment du traitement.
Les souris reçoivent une injection unique par voie intrapéritonéale du composé à tester, dissous dans une solution d'HCl 0,04 M (contrôle correspondant : HCl […]) si le composé est suffisamment soluble, ou dans l'huile d'olive 90 % / DMSO 10 % (contrôle correspondant : huile d'olive 90 % / DMSO 10 %) pour les composés insolubles en milieu aqueux.
Trois jours après l'injection de chaque molécule, tous les animaux sont sacrifiés par décapitation. Les cerveaux extraits sont ensuite congelés dans de l'azote liquide et conservés à -80° C.
Des coupes coronales de 8 microns d'épaisseur sont pratiquées le long de l'axe postéro-antérieur du LC et fixées. Les coupes sont transférées sur membranes Immobilon-P. La TH est mesurée par immunodétection et analyse d'image.

Row | Compound | quantité de TH au niveau du LC, coupe 1 [%] | quantité de TH au niveau du LC, coupe 2 [%] | quantité de TH au niveau du LC, coupe 3 [%] | quantité de TH au niveau du LC, coupe 4 [%] | quantité de TH au niveau du LC, coupe 5 [%] | quantité de TH au niveau du LC, coupe 6 [%] | quantité de TH au niveau du LC, coupe 7 [%] | quantité de TH au niveau du LC, coupe 8 [%] | also measured
1 | O=C1C[C@@H]2[C@H]3[C@@H](CCN2Cc2ccccc2)c2ccccc2N13 (racemic) [Exemple 53, (3aRS,10bSR,10cRS)-3-Benzyl-2,3,3a,4,10b,10c-hexahydrobenzo [b]pyrido [2,3,4-gh]pyrrolizin-5(1H)-one] | 82 | 68 | 64 | 71 | 53 | 52 | 32 | 18 | –
2 | N#CCN1CCC[C@@H]2C(=O)N3c4ccccc4C[C@H]3[C@@H]21 (racemic) [Exemple 10, [(4aSR,11aSR,11bRS)-5-Oxo-3,4,4a,11,11a,11b-hexahydro-2H,5H-pyrido[2',3':3,4]pyrrolo[1,2-a]indol-1-yl]acétonitrile] | 58 | 50 | 49 | 47 | 34 | 26 | 18 | 1 | –
3 | C=CCN1CCC[C@@H]2C(=O)N3c4ccccc4C[C@@H]3[C@H]21 [Exemple 43, (4aS,11aR,11bS)-1-Allyl-1,2,3,4,4a,11,11a,11b-octahydropyrido[2',3':3,4]pyrrolo[1,2-a]indol-5-one] | – | – | – | – | – | – | 9 | – | quantité de TH au niveau du LC, coupe 1 (listed as Ex.43, 20 mg/kg): 69%; quantité de TH au niveau du LC, coupe 2 (listed as Ex.43, 20 mg/kg): 88%; quantité de TH au niveau du LC, coupe 3 (listed as Ex.43, 20 mg/kg): 87%; quantité de TH au niveau du LC, coupe 4 (listed as Ex.43, 20 mg/kg): 60%; quantité de TH au niveau du LC, coupe 5 (listed as Ex.43, 20 mg/kg): 36%; quantité de TH au niveau du LC, coupe 6 (listed as Ex.43, 20 mg/kg): 34%; quantité de TH au niveau du LC, coupe 8 (listed as Ex.43, 20 mg/kg): 4%
4 | CN1CCC[C@H]2C(=O)N3c4ccccc4C[C@@H]3[C@H]21 [Exemple 52, (4aR,11aR,11bS)-1-méthyl-1,2,3,4,4a,11,11a,11b-octahydropyrido[2'3':3,4]pyrrolo[1,2-a]indol-5-one] | 69 | 86 | 79 | 77 | 40 | 22 | 12 | 1 | –
5 | CCCN1CC[C@@H]2c3ccccc3N3NC(=O)C[C@H]1[C@@H]23 [Exemple 15, (3aSR,6aRS,10cRS)-4-Propyl-(3a,4,5,6,6a,10c-hexahydro)-3H-1,4,10b-triazafluoranthén-2-one] | 79 | 75 | 72 | 79 | 33 | 27 | 7 | 5 | –
6 | CN1CCC[C@@H]2C(=O)N3c4ccccc4C[C@H]3[C@@H]21 (racemic) [Exemple 7, (4aSR,11aSR,11bRS)-1-Méthyl-1,2,3,4,4a,11,11a,11b-octahydropyrido[2',3':3,4]pyrrolo[1,2-a]indol-5-one] | – | – | – | – | – | – | – | – | quantité de TH au niveau du LC, coupe 1 (listed as Ex.7, 20 mg/kg): 59%; quantité de TH au niveau du LC, coupe 2 (listed as Ex.7, 20 mg/kg): 57%; quantité de TH au niveau du LC, coupe 3 (listed as Ex.7, 20 mg/kg): 57%; quantité de TH au niveau du LC, coupe 4 (listed as Ex.7, 20 mg/kg): 51%; quantité de TH au niveau du LC, coupe 5 (listed as Ex.7, 20 mg/kg): 28%; quantité de TH au niveau du LC, coupe 6 (listed as Ex.7, 20 mg/kg): 23%; quantité de TH au niveau du LC, coupe 7 (listed as Ex.7, 20 mg/kg): 13%; quantité de TH au niveau du LC, coupe 8 (listed as Ex.7, 20 mg/kg): 4%
7 | C=CCN1CCC[C@H]2C(=O)N3c4ccccc4C[C@H]3[C@@H]21 [Exemple 44, (4aR,11aS,11bR)-1-allyl-1,2,3,4a,11,11a,11b-octahydropyrido[2':3':3.4]pyrrolo[1,2-a]indol-5-one] | 83 | 99 | 78 | 58 | 38 | 29 | 18 | 3 | –
8 | C=CCN1CCC[C@@H]2C(=O)N3c4ccccc4C[C@@H]3[C@H]21 [Exemple 6, (4aSR, 11aRS,11bSR)-1-Allyl-1,2,3,4,4a,11,11a,11b-octahydropyrido[2 3'.3':3,4]pyrrolo[1,2-a]indol-5-one] | – | – | – | – | – | – | – | – | quantité de TH au niveau du LC, coupe 1 (listed as Ex.6, 20 mg/kg): 65%; quantité de TH au niveau du LC, coupe 2 (listed as Ex.6, 20 mg/kg): 62%; quantité de TH au niveau du LC, coupe 3 (listed as Ex.6, 20 mg/kg): 50%; quantité de TH au niveau du LC, coupe 4 (listed as Ex.6, 20 mg/kg): 53%; quantité de TH au niveau du LC, coupe 5 (listed as Ex.6, 20 mg/kg): 41%; quantité de TH au niveau du LC, coupe 6 (listed as Ex.6, 20 mg/kg): 27%; quantité de TH au niveau du LC, coupe 8 (listed as Ex.6, 20 mg/kg): 6%
9 | Cc1ccc2c(c1)cc1n2C(=O)C2=C1N(C)CCC2 [Exemple 38, 1,9-Diméthyl-1,2,3,4-tétrahydropyrido[2',3':3,4]pyrrolo[1,2-a]indol-5-one] | 64 | 99 | 76 | 62 | 27 | 14 | -3 | 5 | –
